Experimental data as given in ChEMBL document CHEMBL5150068, “Structure-Based Design of Tropane Derivatives as a Novel Series of CCR5 Antagonists with Broad-Spectrum Anti-HIV-1 Activities and Improved Oral Bioavailability” (J Med Chem, 2022).

Key:
[1] = target: C-C chemokine receptor type 5 (Homo sapiens, UniProt P51681); test: Antagonist activity at CCR5 (unknown origin) expressed in HEK293 cells co-expressing Galpha16 assessed as intracellular calcium change incubated for 15 mins by Fluo-4 AM calcium flux assay; format: functional, cell-based
Sequence of C-C chemokine receptor type 5 (P51681 whole entry): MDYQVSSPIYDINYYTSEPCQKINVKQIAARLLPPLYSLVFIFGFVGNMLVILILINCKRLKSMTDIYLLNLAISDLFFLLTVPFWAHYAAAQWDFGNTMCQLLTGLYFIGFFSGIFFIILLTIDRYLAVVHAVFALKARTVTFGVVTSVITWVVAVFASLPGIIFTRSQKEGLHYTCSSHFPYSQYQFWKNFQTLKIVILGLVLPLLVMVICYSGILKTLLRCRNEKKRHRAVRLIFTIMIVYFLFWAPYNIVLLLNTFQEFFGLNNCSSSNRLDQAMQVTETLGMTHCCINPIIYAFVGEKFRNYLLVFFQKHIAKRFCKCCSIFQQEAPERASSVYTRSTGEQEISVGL

[2] = tested on: Human immunodeficiency virus 1; test: Antiviral activity against HIV-1 Ba-L infected in human TZM-bl cells measured after 48 hrs incubation by luciferase based analysis; format: functional, organism-based; conditions: Human immunodeficiency virus 1, Ba-L
[3] = Cytotoxicity against human TZM-bl cells incubated for 48 hrs by MTT assay; format: toxicity, cell-based
in vitro = conditions: human, TZM-bl cells
Description: Therapeutic index, ratio of CC50 for human TZM-bl cells to EC50 for antiviral activity against HIV-1 Ba-L

[4] = tested on: Human immunodeficiency virus 1; test: Antiviral activity against HIV-1 YU-2 infected in human TZM-bl cells measured after 48 hrs incubation by luciferase based analysis; format: functional, organism-based; conditions: Human immunodeficiency virus 1, YU-2, TZM-bl, 48 h
[5] = tested on: Human immunodeficiency virus 1; test: Antiviral activity against HIV-1 YU-2 (G140S/Q148H) infected in human TZM-bl cells measured after 48 hrs incubation by luciferase based analysis; format: functional, organism-based; conditions: Human immunodeficiency virus 1, YU-2 (G140S/Q148H)
[6] = tested on: Human immunodeficiency virus 1; test: Antiviral activity against HIV-1 SF162 infected in human TZM-bl cells measured after 48 hrs incubation by luciferase based analysis; format: functional, organism-based; conditions: Human immunodeficiency virus 1, SF162, TZM-bl

SMILES | IC50 [1] [µM] | EC50 [2] [µM] | CC50 at 48 h [3] [µM] | selectivity ratio (in vitro) | EC50 [4] [µM] | EC50 [5] [µM] | EC50 [6] [µM]
Cc1nnc(C(C)C)n1[C@@H]1C[C@H]2CC[C@@H](C1)N2CC[C@H](NC(=O)C1CCC(F)(F)CC1)c1ccc(C#N)s1 | > 10 | > 200 | > 200 | – | – | – | –
Cc1nnc(C(C)C)n1[C@@H]1C[C@H]2CC[C@@H](C1)N2CC[C@H](NC(=O)C1CCC(F)(F)CC1)c1cscn1 | 0.0674 | 0.078 | > 200 | 2560 | – | – | –
COC(=O)C1CCC(C(=O)N[C@@H](CCN2[C@@H]3CC[C@H]2C[C@H](n2c(C)nnc2C(C)C)C3)c2cccs2)CC1 (stereo partly drawn) | 0.0118 | – | > 200 | > 22200 | 0.009 | – | –
CC(=O)N[C@@H](CCN1C2CCC1CC(n1c(C)nc3c1CCN(C(=O)C(C)C)C3)C2)c1cccc(F)c1 (stereo partly drawn) | 0.0189 | – | – | – | – | 0.0023 | –
Cc1ccc([C@H](CCN2[C@@H]3CC[C@H]2C[C@H](n2c(C)nnc2C(C)C)C3)NC(=O)CC#N)s1 | 0.0727 | > 50 | > 200 | – | – | – | –
Cc1ccc([C@H](CCN2[C@@H]3CC[C@H]2C[C@H](n2c(C)nnc2C(C)C)C3)NC(=O)Cn2cnnn2)s1 | 0.0451 | > 50 | > 200 | – | – | – | –
Cc1csc([C@H](CCN2[C@@H]3CC[C@H]2C[C@H](n2c(C)nnc2C(C)C)C3)NC(=O)C2CCN(S(C)(=O)=O)CC2)c1 | 0.0215 | – | > 200 | > 10500 | 0.019 | – | –
Cc1nnc(C(C)C)n1[C@@H]1C[C@H]2CC[C@@H](C1)N2CC[C@H](NC(=O)C1CCCC1)c1ccc(C#N)s1 | > 10 | > 200 | > 200 | – | – | – | –
Cc1ccc([C@H](CCN2[C@@H]3CC[C@H]2C[C@H](n2c(C)nnc2C(C)C)C3)NC(=O)C2CCN(S(C)(=O)=O)CC2)s1 | 0.00799 | 4.54 | > 200 | > 44 | – | – | –
Cc1nnc(C(C)C)n1[C@@H]1C[C@H]2CC[C@@H](C1)N2CC[C@H](NC(=O)C1CCCCC1)c1ccc(F)s1 | 0.00933 | – | > 200 | > 75.2 | – | – | 2.66
CC(=O)Nc1cccc(C(=O)N[C@@H](CCN2[C@@H]3CC[C@H]2C[C@H](n2c(C)nnc2C(C)C)C3)c2cccs2)c1 | 0.0404 | 3.39 | > 200 | > 59 | – | – | –
